The source of these data is patent publication US8901276B2, “Peptide reagents and methods for detection of colon dysplasia” (The Regents of the University of Michigan, priority 2010, dated 2014).

Assay [1] concerns colonic dysplasia (adenomas). The assay can be described thus: In vivo NIR fluorescence endoscopic imaging. The arrangement: species or system CPC;Apc mice. Conditions: for fluorescence signal on in vivo NIR image: 100 μM topical, 5 min; for average T/B ratio: adenoma/adjacent normal ratio as defined. From the text:
Anesthesia was induced and maintained with inhaled isofluorane mixed with oxygen via a nose cone at a dose of 4% and 2% at a flow rate 0.5 liter/min, respectively. Prior to peptide administration, the colon of each mouse was cleaned with a tap water lavage to remove debris. The conventional white light endoscope was used first with a color camera to identify the presence of adenomas. The colon was then rinsed with water until all of the visible mucous was removed. The Cy5.5-labeled peptides were then delivered at a concentration of 100 μM in 1×PBS containing 2.5% DMSO […] through the instrument channel. The peptides were allowed to incubate for 5 minutes, and then the colon was cleansed 3 times with a tap water to remove any unbound peptide. Prior to imaging, the colon was inspected for residual peptide solution, and when clean, the colon was insufflated with air for imaging. Fluorescence images were collected using Axiovision 4.8.1 software.
Images collected during endoscopy were recorded as .zvi files and converted into .tiff images using Axiovision Lite software. Consecutive white light and fluorescence images for each adenoma were analyzed. Regions of interest (ROI) around the adenoma and adjacent normal-appearing mucosa were defined on the color and fluorescence images using Labview®. The white light image was utilized to draw an ROI around the adenoma or adjacent normal appearing colonic mucosa which was then superimposed onto the fluorescent image. Mean gray scale values were calculated for each ROI, and an adenoma/normal colon, or a T/B ratio, value was then calculated for each adenoma. The mean fluorescence intensities were calculated from each ROI to determine the ratio of the average intensities for the adenomas to that from adjacent normal-appearing mucosa, or T/B ratio.
Two-tailed independent samples t-tests (significance level at α=0.05) were used to determine statistical significance between the T/B ratio for the QPI-Cy5.5 and YTT-Cy5.5 peptides binding to colonic adenomas in the CPC;Apc mice. All statistical computations were processed either using statistical software (SPSS15.0.; SPSS, Chicago, Ill.) or Minitab (Minitab Inc. State College, Pa.).

Assay [2] relates to human colonic mucosa sections (normal, dysplasia, adenocarcinoma). The assay can be described thus: Cy5.5-labeled peptide staining of human colonic mucosa sections. Particulars: for sections of adenocarcinoma stained / sections of dysplasia stained: stained/total sections. The protocol:
All specimens were obtained with approval from the University of Michigan Institutional Review Board (IRB). Freshly resected specimens of human colonic mucosa were frozen in OCT and sectioned with 10 μm thickness using Microm-HM-550 Microtome (EquipNet, Inc. Canton, Mass.). The sections were then air dried, washed with PBS 1×, and incubated with the Cy5.5-labeled peptides at a concentration of 10 μM for 15 min at RT. The sections were washed 3× for 1 min in PBS and fixed with 4% paraformaldehyde for 10 min. After fixation, the sections were washed again (1×) and mounted with ProLong Gold reagent with DAPI (Invitrogen, Carlsbad, Calif.). The sections were imaged under a confocal microscope (Leica TCS SP5 Microsystems, Bannockburn, Ill.). Adjacent sections were sent for routine histology. The average intensity from the entire field-of-view of each image was calculated using Matlab (Mathworks, Natick, Mass.).
For the ex-vivo peptide immunohistochemistry, the nonparametric Kruskal-Wallis test was used to determine if observed differences are statistically significant among all three pathological classifications. The nonparametric Mann-Whitney test was used for comparisons between two independent samples, and differences with p<0.05 were considered significant.

In assay [3] the test system is colonic adenomas. As to the kind of experiment: In vivo imaging with multi-spectral scanning fiber endoscope. Further details: species or system CPC; Apc mice. Conditions: 100 μM topical, 5 min; for Average T/B: Multi-Spectral Scanning Fiber Endoscopy Results, mean ± SD. From the text:
A scanning fiber endoscope system was adapted for fluorescence detection in three channels (RGB) using excitation at 440 (NDHB510APA, Nichia, Tokyo, Japan), 532 (FTEC532-V10TA0, Blue Sky Research, Milpitas, Calif.) and 635 (FMXL635-017TA0B, Blue Sky Research) nm using an RGB coupler (OZ Optics, Ottawa, Canada). The three laser sources are delivered simultaneously into the scanning fiber, and focused to the same point on the illumination plane using a custom lens assembly, as shown in the schematic in FIG. 2A. The laser power coming out of the distal tip of the endoscope is <2 mW for each channel, a level consistent with a non-significant risk (NSR) determination by the U.S. Food and Drug Administration (FDA, 21 CFR 812) for future human clinical studies. The amplitude of the spiral scanner was reduced to achieve a divergence angle of 70 deg (max 100 deg) to minimize noise in the periphery of the image. Fluorescence is collected by a ring of 12 step-index plastic optical fibers (POF) with numerical aperture (N.A.) of 0.63 and outer diameter of 250 μm (Toray Industries Inc, Tokyo, Japan).
The CPC;Apc mice were first imaged with white light using a non-scanning endoscope (Karl Storz Veterinary Endoscopy, Goleta, Calif.) to assess for the presence of colonic adenomas that have a size between ˜0.5 to 4 mm in diameter. Any adenomas were rinsed of debris including stool and mucous, by delivering tap water through a 3 Fr instrument channel. Then, the fluorescent-labeled peptides were delivered topically at a concentration of 100 μM in 1×PBS in a volume of 1 mL to the distal 4 cm of the colon and rectum. The peptides were incubated for 5 minutes and then the unbound peptides were rinsed away with tap water 3 times. The colon was inspected for any residual peptide, and when clean, the colon was insufflated with air and imaged with the multi-spectral scanning fiber endoscope.
Videos collected during endoscopy were exported as avi video files and converted into sequential png images using Apple QuickTime. White light and fluorescence images for each adenoma were analyzed in NIH Image J. The white light image was utilized to draw a region of interest (ROI) around the adenoma or adjacent normal appearing colonic mucosa which was then superimposed onto the fluorescence image. The mean fluorescence intensities were calculated for each ROI, and a target/background (T/B) ratio was calculated for each colonic adenoma and compared to the surrounding normal appearing mucosa.

In assay [4] the test system is colonic adenomas. As to the kind of experiment: In vivo imaging with non-scanning endoscope, FITC-labeled peptides. The arrangement: species or system CPC; Apc mice. Particulars: Non-scanning Endoscopy Results; FITC label; mean ± SD. The source says: Specific binding of the candidate peptides to primary dysplastic colonic epithelial cells were validated on flow cytometry ex vivo and with small animal endoscopy in vivo using FITC-labeled peptides using a non-scanning white light endoscope.

In a further assay the test system is HT29 cells. The assay can be described thus: Competitive inhibition assay (bound phage counts). Format: cell-based, human. The protocol: Bound phage counts were performed to observe the competitive inhibition effect of the synthetic candidate heptapeptide with its representative phage counterpart in triplicate. HT29 cells (5×10^6) were detached with enzyme free cell dissociation buffer and blocked with 1% BSA containing PBS for 30 min at 4° C. The cells were washed and incubated with phage (2×10^11) for 15 min. Then, the cells were washed with PBS and immediately incubated with different concentrations of unlabeled peptide ranging from 10 to 200 μM for an additional 15 min. Cells were washed 3× and the bound phages were recovered as described above in bound phage counts. The bound phages were then tittered and counted, and the relative inhibition rate was calculated. The inhibition activity of no-insert WT phage by synthetic candidate peptide and phage with unrelated synthetic control peptide were used as negative controls.

Where no end group is shown, it is not given here. The star is where a group is joined. 5‑TAMRA = CN(C)c1ccc2c(-c3ccc(C(=O)*)cc3C(=O)[O-])c3ccc(N(C)C)cc3[o+]c2c1; DEAC = CCN(CC)c1ccc2cc(C(=O)*)c(=O)oc2c1; Cy5.5 = Cy5.5 fluorescent dye; Ahx = NCCCCCC(=O)O

For “QPI-Cy5.5: QPIHPNNM conjugated with Cy5.5 on the N-terminus via an amino-hexanoic acid linker ({Cy5.5-Ahx}-QPIHPNNM; not fully specified)”, in assay [1], the “fluorescence signal on in vivo NIR image” value is reported as “significant contrast enhancement” and the “average T/B ratio” value turned out to be 3.42±1.30. In assay [2] (10 μM, 15 min, RT), the “staining of dysplasia and adenocarcinoma” value is recorded as “consistently stained”; the “staining of normal colonic mucosa” value is “did not stain any of the 7 sections”. In addition, in assay [2] (10 μM, 15 min, RT, listed as QPI-CY5.5), the “staining of normal colonic mucosa” value was “no binding”. In assay [2] (adenocarcinoma), the “T/B ratio QPI-Cy5.5 in comparison to YTT-Cy5.5” value was 2.9, the “intensity ratio relative to normal colonic mucosa” value was 6.5 and the “mean NIR fluorescence intensity” value came out at 9.8±2.4 AU. Besides, in assay [2] (dysplasia), the “T/B ratio QPI-Cy5.5 in comparison to YTT-Cy5.5” value is 26.7, the “intensity ratio relative to normal colonic mucosa” value was 7.1 and the “mean NIR fluorescence intensity” value was determined as 10.7±3.3 AU. In assay [2] (normal), the “mean NIR fluorescence intensity” value was determined as 1.5±1.0 AU. Moreover, the “T/B ratio QPI-Cy5.5 in comparison to YTT-Cy5.5” value in assay [2] (normal mucosa) was determined as 1.8. Further, in assay [2], the “sections of adenocarcinoma stained” value is given as 8/10 and the “sections of dysplasia stained” value is on record as 6/8.
Turning to “GGGAGGGAGGGK (DEAC)-NH2 (GGGAGGGAGGGK(DEAC)-NH2; N-terminus assumed; SMILES CCN(CC)c1ccc2cc(C(=O)NCCCC[C@H](NC(=O)CNC(=O)CNC(=O)CNC(=O)[C@H](C)NC(=O)CNC(=O)CNC(=O)CNC(=O)[C@H](C)NC(=O)CNC(=O)CNC(=O)CN)C(N)=O)c(=O)oc2c1) [GGGAGGG-DEAC, reference compound]”, in the assay with colonic adenomas [3], the “binding to colonic dysplasia/adenomas on fluorescence images” value (shortened to “binding to colonic dysplasia/adenomas”) is “minimal signal” and the “Average T/B” value amounted to 1.19±0.09.
For the substance “LTTHYKL-CF633: LTTHYKL labeled with CF633 (also: CF633 label, place not given here)”, the “binding to colonic dysplasia/adenomas” value with colonic adenomas [3] is “more subtle”.
Consider “LTTHYKL-FITC: LTTHYKL labeled with 5′-FITC at the C-terminus via GGGSK linker (not fully specified; GGGSK linker, FITC)”, for which the “Average T/B” value in the assay on colonic adenomas [4] worked out at 1.50 ± 0.73.
As to “NLVNLLP-FITC: NLVNLLP labeled with 5′-FITC at the C-terminus via GGGSK linker (not fully specified; GGGSK linker, FITC)”, in the assay with colonic adenomas [4], the “Average T/B” value is reported as 0.99 ± 0.06.
Still for that read-out and setting: with “ANYPREP-FITC: ANYPREP labeled with 5′-FITC at the C-terminus via GGGSK linker (not fully specified; GGGSK linker, FITC)” the figure was 0.94 ± 0.11.
Consider “GGGAGGG-FITC: FITC-labeled GGGAGGG control peptide; probably the same as FITC-Control peptide 2 (also: FITC label, site not given here) [reference compound]”, for which, in the assay on colonic adenomas [4], the “Average T/B” value came out at 1.05 ± 0.05.
Same read-out and setting: as for “ALTPTPP-FITC: ALTPTPP labeled with 5′-FITC at the C-terminus via GGGSK linker (not fully specified; GGGSK linker, FITC)”, the figure is 1.19 ± 0.18.
On to “GGGAGGGAGGGK (5-TAMRA)-NH2 (GGGAGGGAGGGK(5‑TAMRA)-NH2; N-terminus assumed; SMILES C[C@H](NC(=O)CNC(=O)CNC(=O)CN)C(=O)NCC(=O)NCC(=O)NCC(=O)N[C@@H](C)C(=O)NCC(=O)NCC(=O)NCC(=O)N[C@@H](CCCCNC(=O)c1ccc(-c2c3ccc(N(C)C)cc3[o+]c3cc(N(C)C)ccc23)c(C(=O)[O-])c1)C(N)=O) [GGGAGGG-TAMRA, reference compound]”, for which, in the assay with colonic adenomas [3], the “binding to colonic dysplasia/adenomas” value is reported as “minimal signal” and the “Average T/B” value was 1.32±0.10.
In the case of YTTNKH [YTT-Cy5.5, reference compound], in assay [1], the “fluorescence signal on in vivo NIR image” value is on record as “negligible signal” and the “average T/B ratio” value was found to be 1.88±0.38. In assay [2] (10 μM, 15 min, RT), the “staining of any specimen (normal, dysplasia, adenocarcinoma)” value is given as “did not stain any of the specimens” and the “staining of normal colonic mucosa” value is “did not stain”. For the same substance, in assay [2], the “sections of adenocarcinoma stained” value is recorded as 5/10 and the “sections of dysplasia stained” value is listed as “did not stain”.
For “KCCFPAQ [Peptide 2, heptapeptide from M13 phage display]”, the “bound KCCFPAQ phage count” value in the assay with HT29 cells (HT29, 200 μM unlabeled KCCFPAQ peptide) was 3.8×10^4±6.6×10^3. The “inhibition of WT phage binding” value with HT29 cells (addition of KCCFPAQ peptide) is “did not inhibit”. Further, the “rate of inhibition at saturation” value with HT29 cells (peptide concentration above ˜75 μM) is recorded as greater than 98%. In addition, the “inhibition of KCCFPAQ phage binding to HT29 cells” value in the assay on HT29 cells (up to 200 μM unlabeled peptide) is reported as “in a dose-dependent manner”.
With “AKPGYLS-FITC: AKPGYLS labeled with 5′-FITC at the C-terminus via GGGSK linker (not fully specified; GGGSK linker, FITC)”, in the assay with colonic adenomas [4], the “Average T/B” value was determined as 1.53 ± 0.48.
Same read-out and setting: with “ATTVPAS-FITC: ATTVPAS labeled with 5′-FITC at the C-terminus via GGGSK linker (not fully specified; GGGSK linker, FITC)” the figure was 1.06 ± 0.33.
